Assay results: article PMC7937321 (Genes and Environment, 2021)

How the values were obtained:
[1] = system: human lymphoblastoid TK6 cells, thymidine kinase gene; experiment: TK gene mutation assay (TK6 assay, OECD TG490)
TK6 cells = experiment: Cytotoxicity in the TK6 assay (CE, RS, RSG, RTG)
Experimental: Briefly, test substances were dissolved in an appropriate solvent (DMSO or ethanol) and then serially diluted to prepare final concentrations. […] The 4 h and 24 h treatments were conducted by shaking and static exposures, respectively. After treatment with test substances, cells were centrifuged (1000 rpm, 5 min), supernatants were removed, and cells were washed with a serum-free medium or Hank’s Balanced Salt Solution. After centrifugation (1000 rpm, 5 min) to remove the supernatant, cells (2 × 10^7 cells) were dispersed in an RPMI medium containing 10% serum, and cell concentration was measured. Treated cells were cultured at 37 °C with 5% CO2 condition and used for TK6 assays. At that time, to calculate the cloning efficiency (CE) (Eq. 1), the cells were cultured in a 96-well microplate at a concentration of about 1.6 cells/well for 2 weeks.
CE, the cell colony formation rate, was calculated using Eq. 1 according to the Poisson distribution equation. EW was the number of wells without colonies, and TW was the total number of wells. N was the average number of cells per well (N = 1.6). 1 CE=−lnEW/TW/N
Additionally, CE was adjusted by the following calculation (Eq. 2) due to cell loss when exposure caused cytotoxicity. “The number of cells at the end of the treatment” was the number of cells obtained after centrifugation at the end of the treatment in the above-described exposure treatment of the test substance. The “cell number at the start of treatment” was 2 × 10^7. 2 AdjustedCE=CE×number of cellsatendof treatment/number of cellsatthe start of treatment
CE0 seeding, in which cells were seeded immediately after treatment, and CE3 seeding, in which cells were seeded 3 days after treatment, to examine cell viability in the TK6 assay described below. The relative cell viability RS0 (%) just after the treatment with the test substance was calculated from CE0, following Eq. 3. The survival rate of the negative control group was defined as 100%. 3 RS0%=adjusted CE0 of treatment culture/adjusted CE0 of solvent control×100
The TK6 assay is conducted between 20 and 10% RS0 as a maximum dose if cytotoxicity is observed. […] When the main TK6 assay was difficult to conduct under the condition of RS0 values from 20 to 10%, the test was conducted between 20 and 10% relative total growth (RTG), described later, as a maximum dose.
Besides RS0, relative suspension growth (RSG) and RTG as other cytotoxicity indices (Eq. 4) were used. When cells were cultured for 3 days after treatment with the test substance, suspension cell growth ratio 1 (SG1) was the growth ratio from day 0 to day 1 (cell concentration on day 1/cell concentration on day 0). The suspension cell growth ratio 2 (SG2) was the growth ratio from day 1 to day 2 (cell concentration on day 2/cell concentration on day 1). The RSG value was calculated by dividing the total SG value of the untreated group for 3 days by the total SG value of the treated group for the same 3 days (Eq. 4).
On the third day of culture, CE3 plates for determining plating efficiency and mutant frequency (MF) plates for mutation detection were prepared. CE3 plates were seeded in 96-well microplates at a concentration of about 1.6 cells/well.

[2] = TK6, short treatment -S9 mix, 250 μg/mL
[3] = TK6, short treatment -S9 mix, 500 μg/mL
[4] = TK6, short treatment -S9 mix, 1000 μg/mL
[5] = TK6, short treatment -S9 mix, 2000 μg/mL
[6] = dose 250 μg/mL, +S9 mix, short treatment
[7] = dose 250 μg/mL, -S9 mix, 24 h treatment
[8] = dose 500 μg/mL, +S9 mix, short treatment
[9] = dose 500 μg/mL, -S9 mix, 24 h treatment
[10] = dose 1000 μg/mL, +S9 mix, short treatment
[11] = dose 1000 μg/mL, -S9 mix, 24 h treatment
[12] = dose 2000 μg/mL, +S9 mix, short treatment
[13] = dose 2000 μg/mL, -S9 mix, 24 h treatment
[14] = dose 3.00 μg/mL, short treatment, +S9 mix
[15] = short treatment, +S9 mix, positive control, dose 10.00 μg/mL
[16] = Short treatment, +S9 mix, 3.00 μg/mL
[17] = Short treatment, +S9 mix, 3.00 μg/mL, Day 0
[18] = short treatment, +S9 mix, Day 0, positive control, dose 10.00 μg/mL

For Cc1c(N)cccc1N [2,6-DAT], the “%SG” value [1, 2] was 77.8%, the “Mut. freq. (×10-6) N-MF” value [1, 2] was 2.2 ×10-6 and the “Mut. freq. (×10-6) S-MF” value [1, 2] was 7.9 ×10-6. For the same compound, the “Mut. freq. (×10-6) T-MF” value [1, 2] was 10.1 ×10-6, the “%SG” value [1, 3] was 86.8% and the “Mut. freq. (×10-6) N-MF” value [1, 3] was 0.9 ×10-6. For the same compound, the “Mut. freq. (×10-6) S-MF” value [1, 3] was 5.8 ×10-6, the “Mut. freq. (×10-6) T-MF” value [1, 3] was 6.7 ×10-6 and the “%SG” value [1, 4] was 83.3%. The “Mut. freq. (×10-6) N-MF” value [1, 4] was 2.1 ×10-6, the “Mut. freq. (×10-6) S-MF” value [1, 4] was 10.3 ×10-6 and the “Mut. freq. (×10-6) T-MF” value [1, 4] was 12.3 ×10-6. For the same compound, the “%SG” value [1, 5] was 78.9%, the “Mut. freq. (×10-6) N-MF” value [1, 5] was 1.9 ×10-6 and the “Mut. freq. (×10-6) S-MF” value [1, 5] was 7.3 ×10-6. For the same compound, the “Mut. freq. (×10-6) T-MF” value [1, 5] was 9.2 ×10-6, the “%SG” value [1, 6] was 74.2% and the “Mut. freq. N-MF” value [1, 6] was 2.7 ×10-6. The “Mut. freq. S-MF” value [1, 6] was 7.7 ×10-6, the “Mut. freq. T-MF” value [1, 6] was 10.3 ×10-6 and the “%SG” value [1, 7] was 76.3%. For the same compound, the “Mut. freq. N-MF” value [1, 7] was 3.4 ×10-6, the “Mut. freq. S-MF” value [1, 7] was 10.8 ×10-6 and the “Mut. freq. T-MF” value [1, 7] was 14.2 ×10-6. For the same compound, the “%SG” value [1, 8] was 83.1%, the “Mut. freq. N-MF” value [1, 8] was 1.5 ×10-6 and the “Mut. freq. S-MF” value [1, 8] was 7.6 ×10-6. The “Mut. freq. T-MF” value [1, 8] was 9.1 ×10-6, the “%SG” value [1, 9] was 79.9% and the “Mut. freq. N-MF” value [1, 9] was 3.0 ×10-6. The “Mut. freq. S-MF” value [1, 9] was 11.9 ×10-6, the “Mut. freq. T-MF” value [1, 9] was 14.9 ×10-6 and the “%SG” value [1, 10] was 79.2%. The “Mut. freq. N-MF” value [1, 10] was 1.8 ×10-6, the “Mut. freq. S-MF” value [1, 10] was 7.0 ×10-6 and the “Mut. freq. T-MF” value [1, 10] was 8.9 ×10-6. The “%SG” value [1, 11] was 87.5%, the “Mut. freq. N-MF” value [1, 11] was 3.4 ×10-6 and the “Mut. freq. S-MF” value [1, 11] was 24.1 ×10-6. For the same compound, the “Mut. freq. T-MF” value [1, 11] was 27.5 ×10-6, the “%SG” value [1, 12] was 80.8% and the “Mut. freq. N-MF” value [1, 12] was 3.4 ×10-6. For the same compound, the “Mut. freq. S-MF” value [1, 12] was 14.5 ×10-6, the “Mut. freq. T-MF” value [1, 12] was 17.9 ×10-6 and the “%SG” value [1, 13] was 84.3%. For the same compound, the “Mut. freq. N-MF” value [1, 13] was 3.4 ×10-6, the “Mut. freq. S-MF” value [1, 13] was 18.1 ×10-6 and the “Mut. freq. T-MF” value [1, 13] was 21.4 ×10-6. For the same compound, the “Adjusted CE0(%)” value (TK6 cells; [2]) was 52.1%, the “CE0 (%), cell viability on Day 0” value (TK6 cells; [2]) was 53.2% and the “CE3 (%), cell viability on Day 3” value (TK6 cells; [2]) was 116.0%. The “RS0 (%)” value (TK6 cells; [2]) was 75.5%, the RSG (TK6 cells; [2]) was 0.717 and the CE3 (TK6 cells; TK6, short treatment -S9 mix, 250 μg/mL, as fraction) was 1.160. The “Adjusted CE0(%)” value (TK6 cells; [3]) was 49.9%, the “CE0 (%), cell viability on Day 0” value (TK6 cells; [3]) was 48.8% and the “CE3 (%), cell viability on Day 3” value (TK6 cells; [3]) was 104.6%. The “RS0 (%)” value (TK6 cells; [3]) was 72.4%, the RSG (TK6 cells; [3]) was 0.788 and the CE3 (TK6 cells; TK6, short treatment -S9 mix, 500 μg/mL, as fraction) was 1.046. For the same compound, the “Adjusted CE0(%)” value (TK6 cells; [4]) was 40.8%, the “CE0 (%), cell viability on Day 0” value (TK6 cells; [4]) was 40.8% and the “CE3 (%), cell viability on Day 3” value (TK6 cells; [4]) was 92.1%. For the same compound, the “RS0 (%)” value (TK6 cells; [4]) was 59.2%, the RSG (TK6 cells; [4]) was 0.679 and the CE3 (TK6 cells; TK6, short treatment -S9 mix, 1000 μg/mL, as fraction) was 0.921. The “Adjusted CE0(%)” value (TK6 cells; [5]) was 26.2%, the “CE0 (%), cell viability on Day 0” value (TK6 cells; [5]) was 28.3% and the “CE3 (%), cell viability on Day 3” value (TK6 cells; [5]) was 112.0%. For the same compound, the “RS0 (%)” value (TK6 cells; [5]) was 38.0%, the RSG (TK6 cells; [5]) was 0.616 and the CE3 (TK6 cells; TK6, short treatment -S9 mix, 2000 μg/mL, as fraction) was 1.120. For the same compound, the “Adjusted CE0” value (TK6 cells; [6]) was 75.0%, the “CE0 (cell viability on Day 0)” value (TK6 cells; [6]) was 72.7% and the “CE3 (cell viability on Day 3)” value (TK6 cells; [6]) was 81.6%. It also gave an RS0 (TK6 cells; [6]) of 80.9%, an RSG (TK6 cells; [6]) of 0.721 and a CE3 (TK6 cells; dose 250 μg/mL, +S9 mix, short treatment, as fraction) of 0.816. The “Adjusted CE0” value (TK6 cells; [7]) was 51.3%, the “CE3 (cell viability on Day 3)” value (TK6 cells; [7]) was 95.0% and the RS0 (TK6 cells; [7]) was 57.2%. For the same compound, the RSG (TK6 cells; [7]) was 0.982, the CE3 (TK6 cells; dose 250 μg/mL, -S9 mix, 24 h treatment, as fraction) was 0.950 and the “Adjusted CE0” value (TK6 cells; [8]) was 70.6%. For the same compound, the “CE0 (cell viability on Day 0)” value (TK6 cells; [8]) was 68.7%, the “CE3 (cell viability on Day 3)” value (TK6 cells; [8]) was 86.6% and the RS0 (TK6 cells; [8]) was 76.2%. For the same compound, the RSG (TK6 cells; [8]) was 0.855, the CE3 (TK6 cells; dose 500 μg/mL, +S9 mix, short treatment, as fraction) was 0.866 and the “Adjusted CE0” value (TK6 cells; [9]) was 25.3%. For the same compound, the “CE0 (cell viability on Day 0)” value (TK6 cells; [9]) was 36.0%, the RS0 (TK6 cells; [9]) was 28.1% and the RSG (TK6 cells; [9]) was 0.472. For the same compound, the CE3 (TK6 cells; dose 500 μg/mL, -S9 mix, 24 h treatment, as fraction) was 1.160, the “Adjusted CE0” value (TK6 cells; [10]) was 45.8% and the “CE0 (cell viability on Day 0)” value (TK6 cells; [10]) was 43.3%. The “CE3 (cell viability on Day 3)” value (TK6 cells; [10]) was 95.0%, the RS0 (TK6 cells; [10]) was 49.5% and the RSG (TK6 cells; [10]) was 0.544. For the same compound, the CE3 (TK6 cells; dose 1000 μg/mL, +S9 mix, short treatment, as fraction) was 0.950, the “Adjusted CE0” value (TK6 cells; [11]) was 25.1% and the “CE3 (cell viability on Day 3)” value (TK6 cells; [11]) was 101.2%. For the same compound, the RS0 (TK6 cells; [11]) was 28.0%, the RSG (TK6 cells; [11]) was 0.453 and the CE3 (TK6 cells; dose 1000 μg/mL, -S9 mix, 24 h treatment, as fraction) was 1.012. The “Adjusted CE0” value (TK6 cells; [12]) was 31.8%, the “CE0 (cell viability on Day 0)” value (TK6 cells; [12]) was 31.5% and the “CE3 (cell viability on Day 3)” value (TK6 cells; [12]) was 84.1%. The RS0 (TK6 cells; [12]) was 34.3%, the RSG (TK6 cells; [12]) was 0.246 and the CE3 (TK6 cells; dose 2000 μg/mL, +S9 mix, short treatment, as fraction) was 0.841. For the same compound, the “Adjusted CE0” value (TK6 cells; [13]) was 20.5%, the “CE0 (cell viability on Day 0)” value (TK6 cells; [13]) was 25.3% and the “CE3 (cell viability on Day 3)” value (TK6 cells; [13]) was 108.2%. The RS0 (TK6 cells; [13]) was 22.8%, the RSG (TK6 cells; [13]) was 0.237 and the CE3 (TK6 cells; dose 2000 μg/mL, -S9 mix, 24 h treatment, as fraction) was 1.082.

With O=P1(N(CCCl)CCCl)NCCCO1 (centres unmarked) [CP, Cyclophosphamide, reference compound] the “%SG” value [1, 14] was 75.7%, the “Mut. freq. (×10-6) N-MF” value [1, 14] was 14.0 ×10-6 and the “Mut. freq. (×10-6) S-MF” value [1, 14] was 43.8 ×10-6. For the same compound, the “Mut. freq. (×10-6) T-MF” value [1, 14] was 57.8 ×10-6, the “mutant frequency of the concurrent positive control (mean)” value ([1]; short treatment with S9 mix, 2.5–3 μg/mL) was 28.6 × 10^− 6 and the “%SG” value [1, 15] was 50.8%. The “Mut. freq. N-MF” value [1, 15] was 10.0 ×10-6, the “Mut. freq. S-MF” value [1, 15] was 10.3 ×10-6 and the “Mut. freq. T-MF” value [1, 15] was 20.3 ×10-6. For the same compound, the “Daily cell growth Day 1×2×3” value (TK6 cells; [16]) was 7.35, the RSG (TK6 cells; [16]) was 0.385 and the “Adjusted CE0” value (TK6 cells; [17]) was 34.5%. For the same compound, the CE0 (TK6 cells; [17]) was 36.0%, the RS0 (TK6 cells; [17]) was 43.1% and the CE3 (TK6 cells; Short treatment, +S9 mix, 3.00 μg/mL, Day 3) was 66.7%. The CE3 (TK6 cells; [14]) was 0.667, the RS (TK6 cells; [14]) was 43.1 and the “Adjusted CE0” value (TK6 cells; [18]) was 11.6%. For the same compound, the CE0 (TK6 cells; [18]) was 10.6%, the RS0 (TK6 cells; [18]) was 12.2% and the CE3 (TK6 cells; short treatment, +S9 mix, Day 3, positive control, dose 10.00 μg/mL) was 68.7%. The CE3 (TK6 cells; short treatment, +S9 mix, as fraction, positive control, dose 10.00 μg/mL) was 0.687 and the RSG (TK6 cells; [15]) was 0.063.
